Columns and labels:
[1] = tested on: contrast-induced acute kidney injury (CIAKI) mice; experiment: CIAKI mouse model: necrotic and apoptotic cell death, gross findings; type: in vivo, C57/BL6 mice; conditions: 48 h after CM
Experimental: Kidneys were harvested at 48 h after the CM injection, fixed in 4% phosphate-buffered formalin, and embedded in paraffin. To evaluate necrosis, […] paraffin sections were stained with hematoxylin and eosin. Tubular injury was scored semi-quantitatively according to a system by a pathologist who examined at least 20 separate fields (400× magnification) in the outer medulla, which is the zone most sensitive to ischemic injury. The scoring system was as follows: 0, no damage; 1, patchy isolated unicellular necrosis; 2, tubular necrosis <25%; 3, tubular necrosis 25-50%; and 4, tubular necrosis >50%. At least 20 consecutive high-power fields per section were scored by two operators blind to the details of the experiment. To analyze the frequency of apoptosis, […] paraffin sections were subjected to terminal deoxynucleotidyl transferase-mediated dUTP nick-end labeling (TUNEL) assay (Millipore, Temecula, CA, USA) according to the manufacturer's protocol. Four […] paraffin sections were incubated with the TUNEL reaction mixture at 37° C. for 1 h, followed by incubation with a horseradish peroxidase-conjugated detection antibody. The signals were visualized using diaminobenzidine (Sigma-Aldrich). After counterstaining with Mayer's hematoxylin, TUNEL-positive cells were counted in at least five separate fields (640× magnification) in the outer medulla, and the apoptosis index (%, number of apoptosis cells/total number of cells) was calculated using GENASIS software.

[2] = tested on: contrast-induced acute kidney injury (CIAKI) mice; experiment: CIAKI mouse model: renal blood flow (laser Doppler flux); type: in vivo, C57/BL6 mice; conditions: CM + drug, 48 h after CM
Experimental: Total RBF was assessed by measuring renal Doppler flux using noninvasive laser Doppler flowmetry (PeriFlux System 5000, Perimed AB, Sweden). Laser Doppler probes were placed on the kidney surface to measure the renal flux. The flux was measured 48 h after CM administration. The relative increase represented the percentage increase in renal blood flow from baseline to peak for each test. Statistical significance was set as p<0.05.

[3] = tested on: human renal proximal tubular epithelial cells (hRPTECs); experiment: hRPTEC apoptosis by flow cytometry with iodixanol; type: cell-based; conditions: drug with iodixanol 50 mgI/mL, 24 h
Experimental: Human renal proximal tubular epithelial cells (hRPTECs) were purchased from the American Type Culture Collection (#PCS-400-010TM, Manassas, VA, USA). These cells were grown in 75 cm^2 flasks in Renal Epithelial Cell Basal Medium (PCS-400-030TM, ATCCVR) supplemented with Renal Epithelial Cell Growth Kit (PCS-400-040TM, ATCCVR).
After the treatment described in the section above, the hRPTECs were pelleted by centrifugation at 1800 rpm for 10 min and incubated with annexin V fluorescein isothiocyanate and propidium iodide using an Apoptosis Detection Kit I (#556547, BD Biosciences, San Jose, CA, USA) according to the manufacture's instruction. Then quantification was conducted using a FACSC flow cytometer with Cell Quest software (BD Biosciences).

[4] = tested on: human renal proximal tubular epithelial cells (hRPTECs); experiment: hRPTEC cell viability (MTT assay) with iodixanol; type: cell-based; conditions: iodixanol 50 mgI/mL, 24 h; PGE1 100 ng/mL, PGE2 100 nM vs CM vehicle; CM vs normal control
Experimental: 3-(4,5-Dimethyl thiazol-2-yl)-2,5-diphenyl tetrazolium bromide (MTT) assay was used to assess cell viability. The hRPTECs were cultivated in 96-well plates at a density of 10^5 cells/mL and then incubated for 24 h. […] Then, 10 µM MTT (Sigma-Aldrich) was added to each well for an additional 4 h. The blue MTT formazan precipitate was dissolved in 100 mL dimethyl sulfoxide. The absorbance at 540 nm was measured with a multi-well plate reader. Cell viability was expressed as a percentage of the no-treatment cells, as the mean value±standard deviation of the six independent experiments.

[5] = tested on: contrast-induced acute kidney injury (CIAKI) mice; experiment: CIAKI mouse model: AMP and adenosine levels in renal tissue; type: in vivo, C57/BL6 mice; conditions: 48 h after CM
Experimental: 48 h after CM administration, serum and kidney tissues were harvested. The adenosine levels in the serum and kidney tissues were measured using high-performance liquid chromatography.

[6] = rapidly degraded by 15-PGDH; cited from earlier work

In the case of `CCCCC[C@H](O)/C=C/[C@H]1[C@H](O)CC(=O)[C@@H]1C/C=C\CCCC(=O)O` [PGE2, prostaglandin E2], the “TUNEL-positive cell proportions vs CIAKI mice, in words” value [1] is reported as “significantly lower”, the “vascular congestion in the outer medullary region (gross findings)” value [1] is reported as “less-congested” and the “microscopic renal injury score” value ([1]; CM + drug, score 0-4) is reported as 1.55±0.14. For the same compound, the “RBF (renal Doppler flux)” value [2] was 541.4±22.65, the “apoptosis rate of hRPTECs” value [3] was 19.43±1.38% and the “cell viability (MTT), in words” value [4] was “did not show any difference”. For the same compound, the “AMP level compared to CIAKI mice, in words” value [5] was “increased”, the “adenosine level compared to CIAKI mice, in words” value [5] was “increased” and the estimated half-life [6] was “less than 15 s”.

From patent publication US12616681B2, “Compositions and methods for treating renal injury” (priority 2019, dated 2026)
